# According to publication PMC5773651, “Customised in vitro model to detect human metabolism-dependent idiosyncratic drug-induced liver injury” (Archives of Toxicology, 2017):
# Read-outs that look alike come from different tables or passages of the source. Marks after values point to notes of the source that are not given here.
# Experiments:
# [1] = ref Atienzar et al. ([2014]), Garside et al. ([2014]), Tolosa et al. ([2012b]); cited from earlier work
# [2] = tested on: HepG2 cells transduced with AdCYP3A4; assay: Cell viability (PI), IC50, AdCYP3A4-HepG2; assay type: cell-based; conditions: Homo sapiens, unit inferred, tested range in µM
# Procedure: (§1) For subculturing purposes, cells were detached by treatment with 0.25% trypsin/0.02% EDTA at 37 °C. For the adenovirus infection studies, cells were seeded in 96-well plates (5000 cells/well) and adenovirus-containing medium was added 48 h later. After 24 h, cells were transferred to the adenovirus-free medium and cultured for an additional 24-h period prior to the incubations performed with the test chemicals. To optimise the expression of the functional enzymes in the adenovirus-transduced HepG2 (Ad-HepG2) cells, different doses (MOI, multiplicity of infection, defined as plaque formation units per cell) of each adenovirus were tested.
# (§2) The drugs included in the study were chosen based on previous information about their hepatotoxicity. Information on the potential mechanisms implicated in the toxicity of each compound and the major enzymes involved in their metabolism is summarised in Table 1. HepG2 or Ad-HepG2 (48 h post-infection) cells were exposed for 24 h to eight concentrations of the tested compounds. Each experimental condition was repeated independently three times (with three wells measured each time). The stock solutions of compounds were prepared in DMSO and were conveniently diluted in the culture medium to obtain the desired final concentrations. The final DMSO concentration in the culture medium was 0.5% (v/v), and the control cultures were treated with the same amount of solvent.
# (§3) Following treatments, cells were simultaneously loaded with several fluorescent dyes to measure multiple biomarkers of cell toxicity. […] Information about the probes is summarised in Supplementary Table S2.
# (§4) After incubating with dyes, cells were imaged by the Scan^R system (Olympus, Germany). Dyes were excited, and their fluorescence was monitored at the excitation and emission wavelengths at appropriate filter settings. The collected images were analysed using the Scan^R analysis module, which allows the simultaneous quantification of subcellular structures that are stained by different fluorescent probes.
# [3] = tested on: HepG2 cells transduced with AdCYP2C9; assay: Cell viability (PI), IC50, AdCYP2C9-HepG2; assay type: cell-based; conditions: Homo sapiens, unit inferred, tested range in µM
# [4] = tested on: HepG2 cells transduced with AdCYP3A4; assay: HCS hepatotoxicity assay (MEC, TR), AdCYP3A4-HepG2; assay type: cell-based, human; conditions: 24 h; for TR: TR = 100 x Cmax/lowest MEC; for MEC Apoptosis / MEC Calcium / MEC MMP / MEC Mitochondrial superoxide / MEC ROS: unit not given, tested range in µM
# [5] = tested on: HepG2 cells transduced with CYP3A4 in the presence of CYP2C19; assay: HCS hepatotoxicity assay (MEC, TR), AdCYP3A4 + AdCYP2C19 HepG2; assay type: cell-based, human; conditions: CYP3A4-4X + CYP2C19-1X, 24 h
# Source text: For all the compounds and studied parameters, the MEC led to at least a 20% variation in fluorescence intensity or in the corresponding morphological parameter compared to the untreated cultures.
# [6] = tested on: HepG2 cells co-transduced with AdCYP3A4 and AdCYP2C9; assay: HCS hepatotoxicity assay (MEC, TR), AdCYP3A4 + AdCYP2C9 HepG2; assay type: cell-based, human; conditions: 24 h; for TR: TR = 100 x Cmax/lowest MEC; for MEC Apoptosis / MEC Calcium / MEC MMP / MEC Mitochondrial superoxide / MEC ROS: unit not given, tested range in µM
# HepG2 cells [7] = assay: Cell viability (PI), IC50, control HepG2 cells; assay type: cell-based; conditions: Homo sapiens; control non-transduced HepG2; 24 h; unit inferred, tested range in µM; read-out: IC50 (cell viability), C
# [8] = tested on: HepG2 cells transduced with AdCYP2C19; assay: Cell viability (PI), IC50, AdCYP2C19-HepG2; assay type: cell-based; conditions: Homo sapiens, unit inferred, tested range in µM
# Procedure: as §1, §2, §3, §4
# [9] = tested on: HepG2 cells co-transduced with AdCYP3A4 and AdUGT2B7; assay: HCS hepatotoxicity assay (MEC, TR), AdCYP3A4 + AdUGT2B7 HepG2; assay type: cell-based, human; conditions: 24 h; for TR: TR = 100 x Cmax/lowest MEC; for MEC Apoptosis / MEC Calcium / MEC MMP / MEC Mitochondrial superoxide / MEC ROS: unit not given, tested range in µM
# HepG2 cells [10] = conditions: human, 24 h
# Procedure: as §1, §2, §3, §4
# [11] = cited from earlier work; for Bioactivation / Enzyme: major enzyme(s) involved in the bioactivation (denoted as *) or detoxification of the drug: previous information; for Toxicity (mechanisms of toxicity): ref Ashrafian et al. [2007], Donato et al. [2009], Fromenty and Pessayre [1997], Rolo et al. [2000], Tolosa et al. [2012b]
# [12] = tested on: HepG2 cells transduced with AdCYP2C9; assay: HCS hepatotoxicity assay (MEC, TR), AdCYP2C9-HepG2; assay type: cell-based, human; conditions: 24 h; for TR: TR = 100 x Cmax/lowest MEC; for MEC Apoptosis / MEC Calcium / MEC MMP / MEC Mitochondrial superoxide / MEC ROS: unit inferred, tested range in µM
# Procedure: as §1, §2, §3, §4
# [13] = ADV CYP3A4 x1, 24 h, read-out: IC50 (cell viability), ADV dose x1
# [14] = ADV CYP3A4 x4, 24 h, read-out: IC50 (cell viability), ADV dose x4
# [15] = ADV CYP3A4 x10, 24 h, read-out: IC50 (cell viability), ADV dose x10
# [16] = ADV CYP2C9 x1, 24 h, read-out: IC50 (cell viability), ADV dose x1
# [17] = ADV CYP2C9 x4, 24 h, read-out: IC50 (cell viability), ADV dose x4
# [18] = ADV CYP2C9 x10, 24 h, read-out: IC50 (cell viability), ADV dose x10
# [19] = unit not given, tested range in µM
smiles,measurement,setting,value
O=C(O)Cc1ccccc1Nc1c(Cl)cccc1Cl [Diclofenac],Cmax,[1],4.2 µM
same,IC50,[2]; [13],126 µM
same,IC50,[2]; [14],99 µM
same,IC50,[2]; [15],2.8 µM
same,IC50,[3]; [16],42.1 µM
same,IC50,[3]; [17],51.6 µM
same,IC50,[3]; [18],15.5 µM
same,TR,[4]; AdCYP 3A4 1x,42
same,MEC Apoptosis,[4]; AdCYP 3A4 1x,125
same,MEC Calcium,[4]; AdCYP 3A4 1x,10
same,MEC MMP,[4]; AdCYP 3A4 1x,125
same,MEC Mitochondrial superoxide,[4]; AdCYP 3A4 1x,50
same,MEC ROS,[4]; AdCYP 3A4 1x,10
same,TR,[4]; AdCYP 3A4 4x,84
same,MEC Apoptosis,[4]; AdCYP 3A4 4x,10
same,MEC Calcium,[4]; AdCYP 3A4 4x,10
same,MEC MMP,[4]; AdCYP 3A4 4x,125
same,MEC Mitochondrial superoxide,[4]; AdCYP 3A4 4x,5
same,MEC ROS,[4]; AdCYP 3A4 4x,5
same,TR,[5]; TR = 100 x Cmax/lowest MEC,42
same,MEC Apoptosis,[5]; [19],50
same,MEC Calcium,[5]; [19],50
same,MEC MMP,[5]; [19],125
same,MEC Mitochondrial superoxide,[5]; [19],10
same,MEC ROS,[5]; [19],10
same,TR,[6]; CYP3A4-1X + CYP2C9-1X,84
same,MEC Apoptosis,[6]; CYP3A4-1X + CYP2C9-1X,125
same,MEC Calcium,[6]; CYP3A4-1X + CYP2C9-1X,10
same,MEC MMP,[6]; CYP3A4-1X + CYP2C9-1X,125
same,MEC Mitochondrial superoxide,[6]; CYP3A4-1X + CYP2C9-1X,50
same,MEC ROS,[6]; CYP3A4-1X + CYP2C9-1X,5
same,TR,[6]; CYP3A4-4X + CYP2C9-1X,84
same,MEC Apoptosis,[6]; CYP3A4-4X + CYP2C9-1X,10
same,MEC Calcium,[6]; CYP3A4-4X + CYP2C9-1X,10
same,MEC MMP,[6]; CYP3A4-4X + CYP2C9-1X,125
same,MEC Mitochondrial superoxide,[6]; CYP3A4-4X + CYP2C9-1X,5
same,MEC ROS,[6]; CYP3A4-4X + CYP2C9-1X,5
same,IC50,HepG2 cells [7],167 µM
same,IC50,"[8]; ADV CYP2C19 x1, 24 h, read-out: IC50 (cell viability), ADV dose x1",140 µM
same,IC50,"[8]; ADV CYP2C19 x4, 24 h, read-out: IC50 (cell viability), ADV dose x4",158 µM
same,IC50,"[8]; ADV CYP2C19 x10, 24 h, read-out: IC50 (cell viability), ADV dose x10",11.5 µM
same,TR,[9]; CYP3A4-1X + UGT2B7,84
same,MEC Apoptosis,[9]; CYP3A4-1X + UGT2B7,5
same,MEC Calcium,[9]; CYP3A4-1X + UGT2B7,10
same,MEC MMP,[9]; CYP3A4-1X + UGT2B7,50
same,MEC Mitochondrial superoxide,[9]; CYP3A4-1X + UGT2B7,5
same,MEC ROS,[9]; CYP3A4-1X + UGT2B7,5
same,TR,[9]; CYP3A4-4X + UGT2B7,84
same,MEC Apoptosis,[9]; CYP3A4-4X + UGT2B7,5
same,MEC Calcium,[9]; CYP3A4-4X + UGT2B7,5
same,MEC MMP,[9]; CYP3A4-4X + UGT2B7,50
same,MEC Mitochondrial superoxide,[9]; CYP3A4-4X + UGT2B7,5
same,MEC ROS,[9]; CYP3A4-4X + UGT2B7,5
same,MEC Apoptosis,HepG2 cells [10],125 µM
same,MEC Calcium,HepG2 cells [10],50
same,MEC MMP,HepG2 cells [10],250
same,MEC Mitochondrial superoxide,HepG2 cells [10],125
same,MEC ROS,HepG2 cells [10],50
same,TR,HepG2 cells [10],8.4
O=C(O)COc1ccc(C(=O)c2cccs2)c(Cl)c1Cl [Tienilic acid],Cmax,[1],82.7 µM
same,Bioactivation,[11],Yes
same,Enzyme: major enzyme(s) involved in the bioactivation (denoted as *) or detoxification of the drug,[11],CYP2C9*
same,Toxicity (mechanisms of toxicity),[11],"CB, OS"
same,IC50,[3]; [16],> 1200 µM
same,IC50,[3]; [17],1160 µM
same,IC50,[3]; [18],846 µM
same,TR,[12]; AdCYP 2C9 1x,13.8
same,MEC Apoptosis,[12]; AdCYP 2C9 1x,600 µM
same,MEC Calcium,[12]; AdCYP 2C9 1x,600 µM
same,MEC MMP,[12]; AdCYP 2C9 1x,> 1200 µM
same,MEC Mitochondrial superoxide,[12]; AdCYP 2C9 1x,600 µM
same,MEC ROS,[12]; AdCYP 2C9 1x,800 µM
same,TR,[12]; AdCYP 2C9 4x,20.7
same,MEC Apoptosis,[12]; AdCYP 2C9 4x,400 µM
same,MEC Calcium,[12]; AdCYP 2C9 4x,400 µM
same,MEC MMP,[12]; AdCYP 2C9 4x,> 1200 µM
same,MEC Mitochondrial superoxide,[12]; AdCYP 2C9 4x,400 µM
same,MEC ROS,[12]; AdCYP 2C9 4x,600 µM
same,TR,[12]; AdCYP 2C9 10x,41.3
same,MEC Apoptosis,[12]; AdCYP 2C9 10x,200 µM
same,MEC Calcium,[12]; AdCYP 2C9 10x,200 µM
same,MEC MMP,[12]; AdCYP 2C9 10x,> 1200 µM
same,MEC Mitochondrial superoxide,[12]; AdCYP 2C9 10x,400 µM
same,MEC ROS,[12]; AdCYP 2C9 10x,400 µM
same,IC50,HepG2 cells [7],> 1200 µM
same,MEC Apoptosis,HepG2 cells [10],1200 µM
same,MEC Calcium,HepG2 cells [10],800
same,MEC MMP,HepG2 cells [10],>1200
same,MEC Mitochondrial superoxide,HepG2 cells [10],800
same,MEC ROS,HepG2 cells [10],1200
same,TR,HepG2 cells [10],10.3
Cc1c(C)c2c(c(C)c1O)CCC(C)(COc1ccc(CC3SC(=O)NC3=O)cc1)O2 (stereo not drawn) [Troglitazone],Bioactivation,[11],Yes
same,Enzyme: major enzyme(s) involved in the bioactivation (denoted as *) or detoxification of the drug,[11],CYP3A4*
same,Toxicity (mechanisms of toxicity),[11],"MI, OS"
same,DILI category,[11]; ref Gustafsson et al. ([2014]),Severe
same,IC50,[2]; [13],86 µM
same,IC50,[2]; [14],76 µM
same,IC50,[2]; [15],< 50 µM
same,TR,[4]; AdCYP 3A4 1x,12.8
same,MEC Apoptosis,[4]; AdCYP 3A4 1x,100
same,MEC Calcium,[4]; AdCYP 3A4 1x,75
same,MEC MMP,[4]; AdCYP 3A4 1x,200
same,MEC Mitochondrial superoxide,[4]; AdCYP 3A4 1x,200
same,MEC ROS,[4]; AdCYP 3A4 1x,50
same,TR,[4]; AdCYP 3A4 4x,12.8
same,MEC Apoptosis,[4]; AdCYP 3A4 4x,75
same,MEC Calcium,[4]; AdCYP 3A4 4x,50
same,MEC MMP,[4]; AdCYP 3A4 4x,200
same,MEC Mitochondrial superoxide,[4]; AdCYP 3A4 4x,75
same,MEC ROS,[4]; AdCYP 3A4 4x,50
same,TR,[4]; AdCYP 3A4 10x,12.8
same,MEC Apoptosis,[4]; AdCYP 3A4 10x,50
same,MEC Calcium,[4]; AdCYP 3A4 10x,50
same,MEC MMP,[4]; AdCYP 3A4 10x,150
same,MEC Mitochondrial superoxide,[4]; AdCYP 3A4 10x,50
same,MEC ROS,[4]; AdCYP 3A4 10x,50
same,IC50,HepG2 cells [7],213 µM
same,MEC Apoptosis,HepG2 cells [10],100 µM
same,MEC Calcium,HepG2 cells [10],100
same,MEC MMP,HepG2 cells [10],200
same,MEC Mitochondrial superoxide,HepG2 cells [10],200
same,MEC ROS,HepG2 cells [10],100
same,TR,HepG2 cells [10],6.4
